In US20240368151A1, “NOVEL ERGOLINES AND METHODS OF TREATING MOOD DISORDERS” (priority 2021, published 2024):

Test system: C57BL/6 mice
Experiment: Marble burying test (MBT) in mice
Type: in vivo, mouse
Settings: SC, 30-minute period
Procedure: Compound 1 produced an anxiolytic-like effect in the marble burying test (MBT) in C57BL/6 mice (FIG. 3).
Animals. Adult male C57BL/6 mice, aged 8-10 weeks (body weight 20-25 g) were used in these experiments. Animals were housed under controlled temperatures and 12-hour light/dark cycles (lights on between 07:00-19:00 h), with ad libitum food and water. This study was carried out in strict accordance with the requirements of the Committee for the Purpose of Control and Supervision of Experiments on Animals (CPCSEA), India. All efforts were made to minimize suffering.
Drugs and Drug Administration. Compound 1 was synthesized as described above. Desipramine HCl was commercially obtained. The test compound, vehicle, and the positive control desipramine were administered subcutaneously (SC), with doses calculated based on the freebase. Normal saline was used as the vehicle. All compounds were administered at a volume of 10 mL/kg. All treatments were administered 30 minutes prior to the start of behavioral testing. Group size was n=9-10 per treatment.
Marble Burying Test (MBT). […] Mice were handled for about 2 min daily for the 3 days prior to the beginning of the experimental procedure. […] The total number of marbles buried were counted in three 10-minute time bins (total 30 minutes). […]

With `CCCN1C[C@H](C(=O)N(CC)CC)C=C2c3cccc4[nH]cc(c34)C[C@H]21` [Compound 1, (6aR,9R)-N,N-diethyl-7-propyl-4,6,6a,7,8,9-hexahydroindolo[4,3-fg]quinoline-9-carboxamide] the “number of marbles buried compared to vehicle, in words” value was “reduced the number of marbles buried”.
